Measurements taken from patent US20030092083A1, “Cage antigen” (priority 2001, published 2003).
“Also recorded” adds a separate entry of the source.

How the values were obtained:
[1] = test system: CAGE expression in PANC-1 and ACHN cancer cell lines; assay: RT-PCR of CAGE expression after treatment of cancer cell lines that do not express CAGE; type: cell-based; details: various concentrations for 4 days or 2 μM for various time periods
Description: Many of the known C/T antigen genes are methylated in their promoter regions. […] It is understood that it would be within one of ordinary skill in the art to determine the methylation status of CAGE gene by cloning the promoter sequence of CAGE using any available method such as, but not limited to, genomic inverse PCR.
Next, we investigated whether CAGE gene was methylated. […] For RT-PCR, 5′-[…]-3′ (sense, SEQ ID NO: 11) and 5′-[…]-3′ (antisense, SEQ ID NO: 7) were used. While the mechanism of transcriptional silencing of CAGE in some cancer cell lines may not be clear, it appears that testis-specific expression of CAGE is related at least in part to its demethylation level. In addition, the role of transcription factors in the expression of CAGE gene cannot be ruled out. The absence of transcription factors in other somatic tissues may be responsible for the absence of CAGE expression in these tissues.

CD8+ T cells = assay: IFN-γ ELISPOT assay for measuring CD8+ T cell stimulation; type: cell-based, human; details: 10 μg/ml peptide; CD8+ T cells from PBL of healthy HLA-A2 donors as effector, T2 cells as target, 20 hours
Protocol: With these peptides, we stimulated CD8+ T cells isolated from PBL of healthy donors. The activated CD8+ T cells were incubated with target cells ([…]). The effect of CD8+ T cells on target cells was measured by ELISPOT assay, which detects the amount of IFN-γ released due to activation of CD8+ T cells.
For isolation of PBL, Ficoll-Paque® PLUS (Amersham Pharmacia Biotech) was used. Isolation of PBLs was carried out according to the instruction manual provided by the manufacturer (Amersham Pharmacia Biotech). Briefly, 30 ml of whole blood was mixed with 20 ml of Ficoll-Paque® and centrifuged at 800 g for 20 min. The pellet was transferred to a new tube. 20 ml of PBS buffer was added to the pellet, and centrifuged at 800 g for 10 min. After centrifugation, 10 ml of PBS buffer was added to the pellet. 5 ml of Ficoll-Paque® was added and the contents centrifuged at 800 g for 20 min. 10 ml PBS was added to the pellet for washing, and the contents centrifuged at 800 g for 10 min. Isolated PBLs from healthy donors (HLA-A2 type) were dissolved in RPMI 1640 containing 10% human serum and antibiotics.
For isolation of CD8+ T cells from PBL, CD8 negative isolation kit (DYNAL) was used and isolation was carried out according to the instruction manual provided by the manufacturer. […]

| Compound | induction of CAGE expression (RT-PCR) [1] | induction of CD8+ T cells (IFN-γ release, ELISPOT) (CD8+ T cells) |
| --- | --- | --- |
| Nc1ncn([C@H]2C[C@H](O)[C@@H](CO)O2)c(=O)n1 [5-aza-2′-deoxycytidine] | induced CAGE expression in both dose and time-dependent manner; also recorded: induced expression of CAGE in dosage and time-dependent manner | – |
| KMAGELIKI [peptide of CAGE protein, start position 576] | – | showed induction of CD8+ T cells |
| YLMPGFIHL [peptide of CAGE protein, start position 276] | – | showed induction of CD8+ T cells |
